# Results taken from paper PMC3723632, “A Multi-targeted Drug Candidate with Dual Anti-HIV and Anti-HSV Activity” (PLoS Pathogens, 2013).
# Key:
# Assay type in all cases: biochemical
# HSV DNA polymerase = molecular target: T1, HSV DNA polymerase (Human herpesvirus 1, UniProt P04293); assay: HSV DNA polymerase assay; details: for IC50: gapped calf thymus DNA
# T1 construct: gift of M.W. Wathen (Pfizer, Kalamazoo, MI)
# Protocol: (§1) The reaction mixture (40 µl) for the HSV-1 DNA polymerase and HIV-1 RT assays contained 4 µl of Premix (200 mM Tris.HCl, pH 7.5; 2 mM DTT; 30 mM MgCl2), 4 µl of BSA (5 mg/ml), 1.6 µl of activated calf thymus DNA (1.25 mg/ml), 0.8 µl of dCTP (5 mM), 0.8 µl of dTTP (5 mM), 0.8 µl of dGTP (5 mM), 2 µl of radiolabeled [^3H]dATP (1 mCi/ml) (3.2 µM), 18 µl of H2O, and 4 µl of adefovir-pp or PMEO-DAPym-pp at different concentrations (i.e., 200, 20, 2, and 0.2 µM). In the HSV DNA polymerase assays, the inhibitory effect of adefovir-pp or PMEA-DAPym-pp on herpesvirus DNA polymerase-catalyzed polymerization was also determined in the presence of radiolabeled [^3H]dGTP (1 mCi/ml; 2.8 µM), [^3H]dTTP (1 mCi/ml; 1 µM), or [^3H]dCTP (1 mCi/ml; 2.5 µM) as competing dNTP in the presence of 0.8 µl (5 mM) of the other dNTPs in the reaction mixture as described above. The reaction was started by the addition of 4 µl of recombinant HSV-1 DNA polymerase (kindly provided by M.W. Wathen, at that time at Pfizer, Kalamazoo, MI) or 4 µl of recombinant HIV-1 RT (in 20 mM Tris.HCl, pH 8.0; 1 mM DTT; 0.1 mM EDTA; 0.2 M NaCl; 40% glycerol), and the reaction mixture was incubated for 60 min (HSV-1 DNA polymerase) or 30 min (HIV-1 RT) at 37°C. Then, 1 ml of ice-cold 5% TCA in 0.02 M Na4P2O7.10 H2O was added to terminate the polymerisation reaction, after which the acid-insoluble precipitate (radiolabeled DNA) was captured onto Whatman glass fiber filters (type GF/C; GE Healthcare UK Limited, Buckinghamshire, UK) and further washed with 5% TCA and ethanol to remove free radiolabeled dNTP. Radioactivity was determined in a Perkin Elmer Tri-Carb 2810 TR liquid scintillation counter.
# HIV-1 RT = molecular target: T2, HIV-1 RT (Human immunodeficiency virus type 1 group M subtype B, UniProt P03366); assay: HIV-1 reverse transcriptase assay; details: dATP (3.2 µM) as competing substrate, poly rU.dA primer/template
# T2 construct: 4 µl of recombinant HIV-1 RT
# Protocol: as §1, with “The reaction mixture (40 µl) for the HSV-1 DNA polymerase and HIV-1 RT assays contained 4 µl of Premix (200 mM Tris.HCl, pH 7.5; 2 mM DTT; 30 mM MgCl2), 4 µl of BSA (5 mg/ml), 1.6 µl of activated calf thymus DNA (1.25 mg/ml), 0.8 µl of dCTP (5 mM), 0.8 µl of dTTP (5 mM), 0.8 µl of dGTP (5 mM), 2 µl of radiolabeled [^3H]dATP (1 mCi/ml) (3.2 µM), 18 µl of H2O, and 4 µl of adefovir-pp or PMEO-DAPym-pp at different concentrations (i.e., 200, 20, 2, and 0.2 µM).” left out
# [1] = molecular target: mutant HIV-1 RT enzymes (K65R and K70R); assay: Mutant HIV-1 RT enzyme inhibition; details: K65R and K70R mutant HIV-1 RT, data not shown
# Protocol: In all assay systems the drugs were administered prior to, or at the time of, virus infection which is relevant from a microbicidal application viewpoint, for which the drugs are preferentially already present at the time of infection. However, it might well be possible that these drugs are also effective when exposed shortly after virus infection given the DNA polymerase/HIV reverse transcriptase as being one of the intracellular targets of PMEO-DAPym. […] Thus, PMEO-DAPym may have a rather high genetic barrier suppressing a wide variety of clinical HSV and HIV-1 clade isolates, including clinically relevant mutant viruses.
# T1 sequence (P04293 whole entry): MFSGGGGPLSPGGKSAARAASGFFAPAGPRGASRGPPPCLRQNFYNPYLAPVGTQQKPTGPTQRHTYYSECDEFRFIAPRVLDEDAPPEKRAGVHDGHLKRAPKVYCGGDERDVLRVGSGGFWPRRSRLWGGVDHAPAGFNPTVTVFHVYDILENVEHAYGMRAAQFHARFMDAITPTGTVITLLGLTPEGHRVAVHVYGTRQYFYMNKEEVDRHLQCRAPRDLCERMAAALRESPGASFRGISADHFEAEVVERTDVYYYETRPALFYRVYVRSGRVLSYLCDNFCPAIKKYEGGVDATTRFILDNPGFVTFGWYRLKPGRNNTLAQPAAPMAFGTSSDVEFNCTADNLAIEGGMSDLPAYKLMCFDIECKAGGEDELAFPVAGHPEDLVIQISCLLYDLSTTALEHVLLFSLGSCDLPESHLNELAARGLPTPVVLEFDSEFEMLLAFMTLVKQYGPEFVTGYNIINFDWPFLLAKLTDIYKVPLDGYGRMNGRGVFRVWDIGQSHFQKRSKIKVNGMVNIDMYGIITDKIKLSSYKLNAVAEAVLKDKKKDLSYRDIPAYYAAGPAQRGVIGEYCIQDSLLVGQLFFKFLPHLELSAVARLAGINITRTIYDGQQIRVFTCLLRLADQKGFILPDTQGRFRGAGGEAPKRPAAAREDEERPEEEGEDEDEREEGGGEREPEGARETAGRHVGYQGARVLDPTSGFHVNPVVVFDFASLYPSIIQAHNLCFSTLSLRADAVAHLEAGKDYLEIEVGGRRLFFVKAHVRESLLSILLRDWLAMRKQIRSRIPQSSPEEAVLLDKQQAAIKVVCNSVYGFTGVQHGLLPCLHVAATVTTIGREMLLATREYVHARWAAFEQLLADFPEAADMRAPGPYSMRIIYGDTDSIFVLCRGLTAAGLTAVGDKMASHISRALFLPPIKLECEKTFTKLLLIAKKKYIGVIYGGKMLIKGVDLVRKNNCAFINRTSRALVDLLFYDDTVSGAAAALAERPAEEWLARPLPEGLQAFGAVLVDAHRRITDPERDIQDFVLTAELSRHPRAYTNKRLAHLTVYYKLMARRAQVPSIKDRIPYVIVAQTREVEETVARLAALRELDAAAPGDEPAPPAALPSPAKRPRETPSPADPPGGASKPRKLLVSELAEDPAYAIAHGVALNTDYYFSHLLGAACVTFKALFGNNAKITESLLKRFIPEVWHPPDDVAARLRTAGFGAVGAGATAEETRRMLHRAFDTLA
smiles,measurement,setting,value
Nc1cc(OCCOCP(=O)(O)OP(=O)(O)OP(=O)(O)O)nc(N)n1 [PMEO-DAPym-pp],IC50,HSV DNA polymerase; [3H]dATP as competing substrate,0.52 ± 0.03 µg/mL
same,IC50,HSV DNA polymerase; [3H]dCTP as competing substrate,5.2 ± 4.8 µg/mL
same,IC50,HSV DNA polymerase; [3H]dGTP as competing substrate,3.1 ± 1.0 µg/mL
same,IC50,HSV DNA polymerase; [3H]dTTP as competing substrate,5.2 ± 0.3 µg/mL
same,"IC50, incorporation of other [3H]dNTPs","HSV DNA polymerase; dCTP, dGTP, dTTP, range",3.1 to 5.2 µg/mL
same,IC50,HIV-1 RT,0.19 ± 0.21 µg/mL
same,IC50,HIV-1 RT; listed as PMEO-DAPym-diphosphate,0.43 µg/mL
same,IC50,[1],submicromolar range
